From publication PMC3530649 (Journal of the American Chemical Society, 2012)

B1: (E)-β-farnesene synthase (EBFS) (Mentha x piperita) (protein)
chain: MATNGVVISCLREVRPPMTKHAPSMWTDTFSNFSLDDKEQQKCSETIEALKQEARGMLMAATTPLQQMTLIDTLERLGLSFHFETEIEYKIELINAAEDDGFDLFATALRFRLLRQHQRHVSCDVFDKFIDKDGKFEESLSNNVEGLLSLYEAAHVGFREERILQEAVNFTRHHLEGAELDQSPLLIREKVKRALEHPLHRDFPIVYARLFISIYEKDDSRDELLLKLSKVNFKFMQNLYKEELSQLSRWWNTWNLKSKLPYARDRVVEAYVWGVGYHYEPQYSYVRMGLAKGVLICGIMDDTYDNYATLNEAQLFTQVLDKWDRDEAERLPEYMKIVYRFILSIYENYERDAAKLGKSFAAPYFKETVKQLARAFNEEQKWVMERQLPSFQDYVKNSEKTSCIYTMFASIIPGLKSVTQETIDWIKSEPTLATSTAMIGRYWNDTSSQLRESKGGEMLTALDFHMKEYGLTKEEAASKFEGLVEETWKDINKEFIATTNYNVGREIAITFLNYARICEASYSKTDGDAYSDPNVAKANVVALFVDAIVF

Assays:
[1] = molecular target: T1, (E)-β-farnesene synthase (EBFS) (Mentha x piperita, UniProt O48935); assay: steady-state inhibition, radiometric microassay; assay type: biochemical
T1 sequence (O48935 1-550): B1 chain

[2] = substrate: CC(C)=CCC/C(C)=C/CC/C(C)=C/CO[P@@](=O)(O)OP(=O)(O)O; assay: purified protein; conditions: labelled compound (tritiated)
[3] = substrate: C=CC(C)(CC/C=C(\C)CCC=C(C)C)OP(=O)(O)OP(=O)(O)O; assay: steady-state kinetics, radiometric microassay; assay type: biochemical, Mentha x piperita; conditions: labelled compound ((3RS)-(1Z)-trans-[1-3H1]NDP), racemic
[4] = substrate: CC(C)=CCC/C(C)=C/CC/C(C)=C(\F)COP(=O)(O)OP(=O)(O)O; assay: steady-state kinetics, radiometric microassay; assay type: biochemical, Mentha x piperita; conditions: labelled compound ((1RS)-2-fluoro[1-3H1]FDP)

Molecule	Ki [1]	Km [2]	Km [3]	Km [4]
CC(C)=CCC/C(C)=C/CC/C(C)=C(\F)COP(=O)(O)OP(=O)(O)O [2F-3, (2Z,6E)-2-fluorofarnesyl diphosphate]	1300 ± 100 nM	–	–	–
CC(C)=CCC/C(C)=C/CC/C(=C/COP(=O)(O)OP(=O)(O)O)C(F)(F)F [3CF3-3, (6E)-3-trifluoromethylfarnesyl diphosphate]	1600 ± 200 nM	–	–	–
CC(C)=CCC/C(C)=C/CCC(=CCOP(=O)(O)OP(=O)(O)O)CF [3CH2F-3, (6E)-3-fluoromethylfarnesyl diphosphate]	2300 ± 200 nM	–	–	–
B1	–	1.8 ± 0.2 µM	25.0 ± 4.2 µM	1.6 ± 0.2 µM
